Data set [1] addresses T1, aromatase (CYP19, BD Biosciences) (Homo sapiens, UniProt P11511).
T1 sequence (P11511 1-503): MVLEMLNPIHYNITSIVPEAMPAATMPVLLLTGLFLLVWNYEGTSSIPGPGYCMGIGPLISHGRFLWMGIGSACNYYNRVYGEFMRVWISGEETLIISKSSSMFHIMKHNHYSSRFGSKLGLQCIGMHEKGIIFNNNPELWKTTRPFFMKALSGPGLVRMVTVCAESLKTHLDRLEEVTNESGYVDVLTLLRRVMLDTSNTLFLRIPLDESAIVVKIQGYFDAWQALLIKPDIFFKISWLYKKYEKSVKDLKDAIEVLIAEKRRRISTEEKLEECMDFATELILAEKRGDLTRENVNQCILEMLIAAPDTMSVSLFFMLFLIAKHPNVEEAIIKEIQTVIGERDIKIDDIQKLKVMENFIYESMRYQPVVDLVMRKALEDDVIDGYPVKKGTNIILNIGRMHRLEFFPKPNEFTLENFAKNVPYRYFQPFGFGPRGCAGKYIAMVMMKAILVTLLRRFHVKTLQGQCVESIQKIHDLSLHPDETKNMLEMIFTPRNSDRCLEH
In words: Assay for inhibition of aromatase activity (fluorescence, dibenzylfluorescein).
Procedure: Aromatase inhibition is quantified by measuring the fluorescent intensity of fluorescein, the hydrolysis product of dibenzylfluorescein by aromatase. In brief, the test substance (10 μL) is pre-incubated with the NADPH regenerating system (90 μL of 2.6 mM NADP^+, 7.6 mM glucose 6-phosphate, 0.8 U/mL glucose-6-phosphate dehydrogenase, 13.9 mM MgCl2, and 1 mg/mL albumin in 10 mL of 50 mM potassium phosphate, pH 7.4) for 10 min at 37° C. before 100 μL of the enzyme and substrate mixture [800 μL enzyme (CYP19, BD Biosciences, San Jose, Calif.), 0.4 μM dibenzylfluorescein and 4 mg/mL albumin in 10 mL of 50 mM potassium phosphate, pH 7.4] are added. Then, the reaction mixture is incubated for 30 min at 37° C. to allow aromatase to generate the product, and quenched with 75 μL 2 N NaOH. After the reaction is terminated, a 5-min shaking followed by a 2-h incubation at 37° C. enhances the noise/background ratio and fluorescence is measured at 485 nm (excitation) and 530 nm (emission). All experiments were performed in duplicate and the average was used for calculation of IC50 values (Table 2). Compounds were tested in comparison to aminogluthethimide used as positive control.

For the next data set, the system named is HL-60 cells. In words: Induction of differentiation in HL-60 cell line (NBT reduction, 4-day protocol). It is filed as cell-based.
Data set [2] relates to TPA-induced ornithine decarboxylase (ODC) activity in T24 cells. Kind of data set: Inhibition of TPA-induced ornithine decarboxylase (ODC) activity in T24 cells. The class given is cell-based. To be noted: Homo sapiens, read-out: IC50, inhibition of TPA-induced ODC activity.
Procedure: Cell Culture. […] T24 cells were cultured in MEM medium (Invitrogen, Carlsbad, Calif.) containing 10% heat-inactivated fetal bovine serum, non-essential amino acids, 1 mM sodium pyruvate (BioWhittaker, Walkersville, Md.), 100 units of penicillin/mL, 100 μg streptomycin/mL and 250 ng amphotericin B/mL (Gibco Invitrogen, Grand Island, N.Y.). […] The cell lines were maintained in a 5% CO2 atmosphere at 37° C. and were routinely tested for mycoplasma contamination.
In brief, cells were plated at an initial density of 2×10^5 cells per well in 24-well plates. […] After an additional 6 h incubation, plates were washed twice with PBS and kept at −85° C. until tested. ODC activity was directly assayed by measuring the release of [^14C]CO2 from L-[1-^14C]-ornithine HCl in the presence of 190 μM nonradioactive ornithine HCl. The amount of radioactivity captured in NaOH-impregnated filter discs was determined by scintillation counting in 24-well plates using a Wallac 1450 Microbeta liquid scintillation counter. Protein was determined according to the Lowry procedure. Interfering dithiothreitol contained in the reaction mixture was destroyed by adding chloramine T (50 μL, 8 mg/mL) to each well (30 min incubation at RT), followed by NaOH (50 μM, 5.7 M) to solubilize the protein. The protein was measured in 96-well plates using an aliquot of the reaction mixture and bovine serum albumin as a standard. The optical density was measured at 660 nm using a BT2000 Microkinetic Reader. The results were calculated as nmol [^14C]CO2/h/mg protein and expressed as a percentage in comparison with a control treated with DMSO and TPA (12-O-tetradecanoylphorbol-13-acetate). Dose-response curves were prepared and the results were expressed as IC50 values in micromolar concentrations.
In data set [3] the test system is TPA-induced NF-κB activity in HepG2 cells stably transfected with NF-κB-luciferase plasmid. In words: Inhibition of TPA-induced NF-κB activity in HepG2 cells (NF-κB-luciferase). The class given is cell-based, human.
Procedure: Cell Culture. […] HepG2 human hepatoma cells stably transfected with NF-κB-luciferase plasmid were maintained in Ham's F12 supplemented with 10% heat-inactivated fetal bovine serum, 100 units/mL penicillin G sodium, 100 μg/mL streptomycin sulfate, 1% MEM amino acid and 0.1% insulin. […] The cell lines were maintained in a 5% CO2 atmosphere at 37° C. and were routinely tested for mycoplasma contamination.
Inhibition of TPA-Induced NF-κB Activity in HepG2 Cells. […] In brief, transfected cells were incubated for 48 h in 96-well plates. […] Cells were washed with PBS, lysed using 50 μL 1× Reporter Lysis Buffer (Promega, Madison, Wis.) for 10 min, and the luciferase determination was performed according to the manufacturer's protocol.
Where [4] appears, read: read-out: IC50 (μM), aromatase inhibition, fluorescein from dibenzylfluorescein, 30 min at 37° C., average of duplicates.
Where [5] appears, read: T-24, T24 cells, TPA 200 nM, 6 h incubation.

Read-outs that look alike come from different tables or passages of the source.

Procedure for HL-60 cells: Cell Culture. […] The cell lines were maintained in a 5% CO2 atmosphere at 37° C. and were routinely tested for mycoplasma contamination.
HL-60 cells were tested using a 4-day protocol. […] In brief, cells in log phase (approximately 10^6 cells/mL) were diluted to 10^5 cells/mL and preincubated overnight (18 h) in 24-well plates to allow cell growth recovery. Then, samples dissolved in DMSO were added, keeping the final DMSO concentration at 0.1% (v/v). Control cultures were treated with the same concentration of DMSO.
Evaluation of NBT reduction was used to assess the ability of sample-treated cells to produce superoxide when challenged with TPA. A 1:1 (v/v) mixture of a cell suspension (10^6 cells) and TPA/NBT solution [2 mg/mL NBT and 1 μg/mL TPA in phosphate buffer saline (PBS)] was incubated for 1 h at 37° C. Then, cells were smeared on glass slides, and counterstained with 0.3% (w/v) safranin O in methanol. Positive cells reduce NBT yielding intracellular black-blue formazan deposits and were quantified by microscopic examination of >200 cells. Results were expressed as a percentage of positive cells.

A word on the IC50: it is the midpoint of a concentration-inhibition curve. In the case of `COCOc1ccc2c(c1)OC(c1ccc(OCOC)c(CC=C(C)C)c1)CC2=O` (racemic) [8a, 7-(Methoxymethoxy)-2-(4-(methoxymethoxy)-3-(3-methylbut-2-enyl)phenyl)-chroman-4-one], the IC50 in data set [1] worked out at 13.9 ± 6.09 µM.
For orientation: melting point means the temperature, or range, at which the solid turns liquid. With `CC(C)=CCc1cc(C2CC(=O)c3ccc(O)cc3O2)ccc1O` (racemic) [8b, 7-Hydroxy-2-(4-hydroxy-3-(3-methylbut-2-enyl)phenyl)chroman-4-one], the melting point lay in the range of 76 to 78 °C.
As for `COCOc1ccc2c(c1)OC(c1ccc(OC)c(CC=C(C)C)c1)CC2=O` (racemic) [8c, 2-(4-Methoxy-3-(3-methylbut-2-enyl)phenyl)-7-(methoxymethoxy)chroman-4-one], the IC50 in data set [1] worked out at 7.67 ± 3.27 µM.
In turn, `COc1ccc(C2CC(=O)c3ccc(O)cc3O2)cc1CC=C(C)C` (racemic) [8d, 7-Hydroxy-2-(4-methoxy-3-(3-methylbut-2-enyl)phenyl)chroman-4-one] returned an IC50 in data set [1] of 4.08 ± 2.1 µM.
Still for that read-out and setting: the same measure for `COCOc1ccc(C2CC(=O)c3ccc(OC)cc3O2)cc1CC=C(C)C` (racemic) [8e, 7-Methoxy-2-(4-(methoxymethoxy)-3-(3-methylbut-2-enyl)phenyl)chroman-4-one]: 25.1 ± 6.38 µM; for `COc1ccc2c(c1)OC(c1ccc(O)c(CC=C(C)C)c1)CC2=O` (racemic) [8f, 2-(4-Hydroxy-3-(3-methylbut-2-enyl)phenyl)-7-methoxychroman-4-one]: 4.75 ± 0.61 µM.
As for `COc1ccc2c(c1)OC(c1ccc(OC)c(CC=C(C)C)c1)CC2=O` (racemic) [8g, 7-Methoxy-2-(4-methoxy-3-(3-methylbut-2-enyl)phenyl)chroman-4-one], the midpoint of inhibition in data set [1], the IC50, lay at 3.67 ± 1.61 µM.
The same measure, in the same setting: the same measure for `COc1ccc(C2CC(=O)c3ccccc3O2)cc1CC=C(C)C` (racemic) [8h, 2-(4-Methoxy-3-(3-methylbut-2-enyl)phenyl)chroman-4-one]: 12.1 ± 3.24 µM; for `COc1ccc2c(c1)OC(c1cccc(CC=C(C)C)c1)CC2=O` (racemic) [8i, 7-Methoxy-2-(3-(3-methylbut-2-enyl)phenyl)chroman-4-one]: 4.67 ± 2.15 µM; for `COc1ccc(C2CC(=O)c3ccc(OC)cc3O2)cc1` (racemic) [8j, 7-Methoxy-2-(4-methoxyphenyl)chroman-4-one]: 1.86 ± 0.37 µM.
Consider `COc1ccc2c(c1)OC(c1ccc(OCC=C(C)C)cc1)CC2=O` (racemic) [8k, 7-Methoxy-2-(4-(3-methylbut-2-enyloxy)phenyl)chroman-4-one], for which the melting point lay in the range of 108 to 110 °C.
With `COc1ccc(C(=O)CC(O)c2ccc(OC)c(CC=C(C)C)c2)c(O)c1` (stereo not shown) [3-Hydroxy-1-(2-hydroxy-4-methoxyphenyl)-3-(4-methoxy-3-(3-methylbut-2-enyl)phenyl)propan-1-one], the IC50 in data set [1] (setting [4]) came to 54.7 ± 11.9 µM.
For `COCOc1ccc(C(=O)/C=C/c2ccc(OCOC)c(CC=C(C)C)c2)c(O)c1` [7a, 1-(2-Hydroxy-4-(methoxymethoxy)phenyl)-3-(4-(methoxymethoxy)-3-(3-methylbut-2-enyl)phenyl)prop-2-en-1-one], the IC50 in data set [1] was above 243 µM.
Turning to `CC(C)=CCc1cc(/C=C/C(=O)c2ccc(O)cc2O)ccc1O` [7b, 1-(2,4-Dihydroxyphenyl)-3-(4-hydroxy-3-(3-methylbut-2-enyl)phenyl)-prop-2-en-1-one], the melting point was 167 °C. This compound also gave an IC50 in data set [1] above 308 µM.
Turning to `COCOc1ccc(C(=O)/C=C/c2ccc(OC)c(CC=C(C)C)c2)c(O)c1` [7c, 1-(2-Hydroxy-4-(methoxymethoxy)phenyl)-3-(4-methoxy-3-(3-methylbut-2-enyl)phenyl)prop-2-en-1-one], the IC50 in data set [1] was above 261 µM.
Turning to `COc1ccc(/C=C/C(=O)c2ccc(O)cc2O)cc1CC=C(C)C` [7d, 1-(2,4-Dihydroxyphenyl)-3-(4-methoxy-3-(3-methylbut-2-enyl)phenyl)prop-2-en-1-one], the melting point was 166 to 168 °C. Moreover, in data set [1] (setting [4]), the IC50 was found to be 82.9 ± 44.3 µM.
On to `COCOc1ccc(/C=C/C(=O)c2ccc(OC)cc2O)cc1CC=C(C)C` [7e, 1-(2-Hydroxy-4-methoxyphenyl)-3-(4-(methoxymethoxy)-3-(3-methylbut-2-enyl)phenyl)prop-2-en-1-one], for which the IC50 in data set [1] is above 261 µM.
Take `COc1ccc(C(=O)/C=C/c2ccc(O)c(CC=C(C)C)c2)c(O)c1` [7f, 3-(4-Hydroxy-3-(3-methylbut-2-enyl)phenyl)-1-(2-hydroxy-4-methoxyphenyl)prop-2-en-1-one]: the melting point fell in the range of 80 to 82 °C. Besides, the IC50 in data set [1] is above 295 µM.
The like results for `COc1ccc(C(=O)/C=C/c2ccc(OC)c(CC=C(C)C)c2)c(O)c1` [7g, 1-(2-Hydroxy-4-methoxyphenyl)-3-(4-methoxy-3-(3-methylbut-2-enyl)phenyl)prop-2-en-1-one] were, in that order, 82 to 84 °C and above 284 µM.
`COc1ccc(/C=C/C(=O)c2ccccc2O)cc1CC=C(C)C` [7h, 1-(2-Hydroxyphenyl)-3-(4-methoxy-3-(3-methylbut-2-enyl)phenyl)prop-2-en-1-one] had an IC50 in data set [1] above 310 µM.
On the same count and under the same terms, the same measure for `COc1ccc(C(=O)/C=C/c2cccc(CC=C(C)C)c2)c(O)c1` [7i, 1-(2-Hydroxy-4-methoxyphenyl)-3-(3-(3-methylbut-2-enyl)phenyl)prop-2-en-1-one]: above 310 µM; for `COc1ccc(/C=C/C(=O)c2ccc(OC)cc2O)cc1` [7j, 1-(2-Hydroxy-4-methoxyphenyl)-3-(4-methoxyphenyl)prop-2-en-1-one]: above 352 µM.
Compound `COc1ccc(C(=O)C=Cc2ccc(OCC=C(C)C)cc2)c(O)c1` [7k, 1-(2-Hydroxy-4-methoxyphenyl)-3-(4-(3-methylbut-2-enyloxy)phenyl)prop-2-en-1-one] showed a melting point of 95 to 97 °C. The IC50 in data set [1] was above 271 µM.
`O=c1cc(-c2ccc(O)cc2)oc2cc(O)cc(O)c12` [apigenin]: the “ED50, concentration inducing 50% of the cells to differentiate” value in the data set on HL-60 cells amounted to 10 µM. The IC50 in data set [2] (setting [5]) turned out to be 6 µM.
On to `COc1cc2c(cc1OC)[C@@H]1C(=O)c3ccc4c(c3O[C@@H]1CO2)C=CC(C)(C)O4` [deguelin], for which, in data set [2] (T-24, 6 h), the IC50 was determined as 0.1 µM.
Turning to `O=c1c(-c2ccc(O)cc2)coc2cc(O)cc(O)c12` [genistein], in the data set on HL-60 cells, the “ED50, concentration inducing 50% of the cells to differentiate” value amounted to 30 µM.
Consider `CC1=CC(=O)c2ccccc2C1=O` [menadione], for which the IC50 in data set [2] (setting [5]) was 8.3 µM.
For the compound Tumor necrosis factor (TNF)-α, in data set [3], the “IC50, standard inhibitor in NF-κB luciferase assay” value fell in the range of 15 to 25 ng/mL.

For the origin of these results see patent US8946287B2, “Chemotherapeutic flavonoids, and syntheses thereof” (Purdue Research Foundation, priority 2006, dated 2015).
